Measurements: patent US12679840B2, “Process for the preparation of (9S)-N-[3-(6-methylpyrimidin-4-yl)-3-azabicyclo[3.2.1]octan-8-yl]-9-(2,3,4-trifluorophenyl)-6,7,8,9-tetrahydro-5H-[1,2,4]triazolo[1,5-a]azepin-2-amine and its solid form” (Hoffmann-La Roche Inc., priority 2020, dated 2026)
Values after ≈ are worked out from the molar mass of the structure shown. Values joined by “and” are separate entries in the source; they are usually repeats but may differ in a detail not shown here. Equal entries are not always repeated.

Assay: Solubility study of Form A in buffers, water and biorelevant media (suspension shaken 24 hours at 25° C., filtrate by UPLC)
Format: physicochemical
Conditions: for solubility at 24 h: thermodynamic from solid
Description: • pH 1.00 buffer • pH 3.00 buffer • pH 5.00 buffer • pH 7.00 buffer • pH 9.00 buffer • Water • SGF without Triton • FaSSIF • FeSSIF b. Testing Procedure
Weigh about 5 mg of compound (I) into glass vial and add 0.5 ml testing medium listed above to form suspension. Shake these suspensions at 1200 rpm for about 24 hours under 25° C.
At the end of 24 hours, pull out all the vials and filter the suspensions by 0.22 μm PVDF filters. Check the pH value and concentration of filtrate by pH meter and UPLC respectively.
The result indicates the solubility is pH dependent.

solubility at 24 h (FaSSIF, 25 °C, about 24 hours, individual replicate): 34 µg/mL (≈ 70.3 µM)
solubility at 24 h (FaSSIF, 25 °C, about 24 hours, mean ± spread of three replicates): 33 µg/mL (≈ 68.2 µM)
Solubility (FaSSIF, about 24 hours, individual replicate): 0.033 mg/mL (≈ 68.2 µM)
solubility at 24 h (FeSSIF, 25 °C, about 24 hours, individual replicate): 614 µg/mL (≈ 1270 µM)
solubility at 24 h (FeSSIF, 25 °C, about 24 hours, mean ± spread of three replicates): 618 ± 7 µg/mL (≈ 1280 µM)
Solubility (FeSSIF, about 24 hours, individual replicate): 0.611 mg/mL and 0.628 mg/mL
solubility at 24 h (SGF without Triton-X100, 25 °C, simulated gastric fluid, SGF without Triton-X100, about 24 hours, individual replicate): > 10000 µg/mL
solubility at 24 h (SGF without Triton-X100, 25 °C, simulated gastric fluid, SGF without Triton-X100, about 24 hours, mean of three replicates): > 10000 µg/mL
Solubility (Water, about 24 hours, individual replicate): 0.006 mg/mL (≈ 12.4 µM)
solubility at 24 h (pH 1.0 buffer, 25 °C, pH 1, aqueous buffer, about 24 hours, individual replicate): > 10000 µg/mL
solubility at 24 h (pH 1.0 buffer, 25 °C, pH 1, aqueous buffer, about 24 hours, mean of three replicates): > 10000 µg/mL
solubility at 24 h (pH 3.0 buffer, 25 °C, pH 3, aqueous buffer, about 24 hours, individual replicate): 5480 µg/mL (≈ 11300 µM)
solubility at 24 h (pH 3.0 buffer, 25 °C, pH 3, aqueous buffer, about 24 hours, mean ± spread of three replicates): 5347 ± 47 µg/mL (≈ 11100 µM)
Solubility (pH 3.0 buffer, about 24 hours, individual replicate): 5.366 mg/mL and 5.468 mg/mL
solubility at 24 h (pH 5.0 buffer, 25 °C, pH 5, aqueous buffer, about 24 hours, individual replicate): 91 µg/mL (≈ 188 µM)
solubility at 24 h (pH 5.0 buffer, 25 °C, pH 5, aqueous buffer, about 24 hours, mean ± spread of three replicates): 101 ± 9 µg/mL (≈ 209 µM)
Solubility (pH 5.0 buffer, about 24 hours, individual replicate): 0.097 mg/mL and 0.114 mg/mL
solubility at 24 h (pH 7.0 buffer, 25 °C, pH 7, aqueous buffer, about 24 hours, individual replicate): 7 µg/mL (≈ 14.5 µM)
solubility at 24 h (pH 7.0 buffer, 25 °C, pH 7, aqueous buffer, about 24 hours, mean ± spread of three replicates): 6 µg/mL (≈ 12.4 µM)
Solubility (pH 7.0 buffer, about 24 hours, individual replicate): 0.006 mg/mL (≈ 12.4 µM)
solubility at 24 h (pH 9.0 buffer, 25 °C, pH 9, aqueous buffer, about 24 hours, individual replicate): 6 µg/mL (≈ 12.4 µM)
solubility at 24 h (pH 9.0 buffer, 25 °C, pH 9, aqueous buffer, about 24 hours, mean ± spread of three replicates): 6 µg/mL (≈ 12.4 µM)
solubility at 24 h (water, 25 °C, about 24 hours, individual replicate): 7 µg/mL (≈ 14.5 µM)
solubility at 24 h (water, 25 °C, about 24 hours, mean ± spread of three replicates): 6 µg/mL (≈ 12.4 µM)
SMILES: Cc1cc(N2CC3CCC(C2)C3Nc2nc3n(n2)CCCC[C@H]3c2ccc(F)c(F)c2F)ncn1 (stereo partly drawn) [Form A, (9S)-N-[3-(6-methylpyrimidin-4-yl)-3-azabicyclo[3.2.1]octan-8-yl]-9-(2,3,4-trifluorophenyl)-6,7,8,9-tetrahydro-5H-[1,2,4]triazolo[1,5-a]azepin-2-amine]
